Measured values from US7691848B2, “Pyrrolobenzodiazepine arylcarboxamides and derivatives thereof as follicle-stimulating hormone receptor antagonists” (Wyeth, priority 2005, dated 2010).
Where two headings read alike, the source gives them in different places.

Columns and labels:
human FSH receptor = molecular target: T1, human FSH receptor (Homo sapiens, UniProt P23945); experiment: Follicle-Stimulating Hormone Receptor-Dependent Cre-Luciferase Reporter Gene Assay (CHO FSH-R 6CRE-Luc cells); type: cell-based; settings: for IC50: dose-response format, in presence of EC50 of purified human FSH
T1 construct: host or cells: CHO-K1 (CHO FSH-R 6CRE-Luc, 1D7 cells)
T1 sequence (P23945 18-695): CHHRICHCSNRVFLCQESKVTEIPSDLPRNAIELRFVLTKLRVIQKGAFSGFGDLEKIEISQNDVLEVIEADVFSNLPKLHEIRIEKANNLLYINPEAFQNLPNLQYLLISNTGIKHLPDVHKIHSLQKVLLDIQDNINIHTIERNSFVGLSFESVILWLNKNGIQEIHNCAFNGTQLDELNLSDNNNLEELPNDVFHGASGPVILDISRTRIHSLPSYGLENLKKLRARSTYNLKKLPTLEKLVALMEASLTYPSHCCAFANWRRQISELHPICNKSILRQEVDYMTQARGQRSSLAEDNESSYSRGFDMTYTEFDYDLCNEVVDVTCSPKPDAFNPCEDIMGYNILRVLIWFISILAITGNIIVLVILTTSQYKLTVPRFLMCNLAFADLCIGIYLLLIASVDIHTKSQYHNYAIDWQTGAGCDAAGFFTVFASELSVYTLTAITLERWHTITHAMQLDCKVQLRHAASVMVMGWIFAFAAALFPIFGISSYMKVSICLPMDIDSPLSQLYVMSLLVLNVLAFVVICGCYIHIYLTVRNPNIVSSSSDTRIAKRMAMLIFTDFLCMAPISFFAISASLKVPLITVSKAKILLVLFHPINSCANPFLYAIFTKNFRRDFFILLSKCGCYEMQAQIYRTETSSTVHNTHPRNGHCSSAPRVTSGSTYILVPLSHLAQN
In short: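 CHO-K1 cells stably expressing human FSH receptor and a 6×CRE-driven luciferase reporter; compounds in growth medium with 0.2% DMSO, incubated 4 h at 37 °C. Luciferase measured by chemiluminescence (RLU/sec/well); 2-dose results given as percent inhibition of the response to an EC50 concentration of FSH.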

hFSH-R = molecular target: T2, hFSH-R (Homo sapiens, UniProt P23945); experiment: cAMP accumulation (RIA) in CHO-3D2 cells (hFSH-R), hFSH-induced; type: cell-based; settings: for Emax: read-out: cAMP % efficacy
T2 construct: expressed in transfected cells; host or cells: CHO-3D2 cells (CHO-K1 parental line)
T2 sequence (P23945 18-695): T1 sequence (P23945 18-695)
Protocol: In Vitro Bio-Assay, Selectivity and Dependency of Agonists and Antagonists to the FSH Receptor
Compound Vehicle: Stock compounds were solubilized in 100% DMSO (Sigma-Aldrich Chemical Co., St. Louis, Mo.) at a concentration of 30 mM. The compounds subsequently were diluted in sterile assay medium consisting of Opti-MEM® I (Invitrogen/Life Technologies, Carlsbad, Calif.) with 0.1% (w/v) BSA (Sigma-Aldrich) prior to use in the bio-assay. The final concentration of DMSO in the assay was 0.1%.
Plated cells are then incubated at 37° C. in a humidified 5% CO2/95% air atmosphere.
Assay: On the day of the assay, cells were washed three times with 100 μl/well of assay medium consisting of Opti-MEM® I (Invitrogen/Life Technologies) with 0.1% (w/v) BSA (Sigma-Aldrich). Medium was removed and 100 μl of assay medium was added to each well. Plates were incubated for an additional 30 minutes at 37° C. […] Reactions were terminated by the addition of 50 μl of 0.2N hydrochloric acid to each well and cAMP-accumulation was measured by radioimmunoassay (RIA) using a commercially available kit (Amersham Biosciences, Piscataway, N.J.).
All test compounds were evaluated in a dose-response paradigm ranging from 0.01 to 30 μM. Controls and test compounds were evaluated in quadruplicate in a 96-well format.
Along with the test compounds, FSH also was run as a positive control in the agonist mode using concentrations ranging from 0.1-1000 ng/ml.
Data were analyzed by one-way analysis of variance and significant differences between treatments and control determined by Least Significant Difference test.
Test compounds were compared to the effect of purified human FSH.

[1] = 2-dose format, concentration in parentheses 30 μM, inhibition of the response to EC50 of FSH
[2] = inhibition of cAMP accumulation induced by hFSH at EC20, CHO-3D2 cells

COc1cccc(CNC(=O)c2ccc3n2Cc2ccccc2N(C(=O)c2ccc(-c4ccccc4C)c(C)c2)C3)c1 [Example 7]
IC50 (human FSH receptor): 2.25 µM
IC50 (hFSH-R): 0.3 µM
Emax (hFSH-R): 89%

Cc1ccccc1-c1ccc(C(=O)N2Cc3ccc(C(=O)NCc4cccc(O)c4)n3Cc3ccccc32)cc1C [Example 10]
IC50 (human FSH receptor): 4.14 µM
IC50 (hFSH-R): 0.9 µM
Emax (hFSH-R): 97%

COc1ccccc1-c1ccc(C(=O)N2Cc3ccc(C(=O)NCC(c4ccccc4)N(C)C)n3Cc3ccccc32)cc1 (centres unmarked) [Example 2]
IC50 (human FSH receptor): 25.7 µM
IC50 (hFSH-R): 1.2 µM
Emax (hFSH-R): 100%

Cc1ccccc1-c1ccc(C(=O)N2Cc3ccc(C(=O)NCCc4ccc5c(c4)OCO5)n3Cc3ccccc32)cc1C [Example 33]
IC50 (human FSH receptor): 5.65 µM
IC50 (hFSH-R): > 30 µM

COc1cc(C(=O)N2Cc3ccc(C(=O)NCc4ccc(F)cc4F)n3Cc3ccccc32)ccc1-c1ccccc1C [Example 61, N-(2,4-DILUOROBENZYL)-10-[(2-METHOXY-2′-METHYL-1,1′-BIPHENYL-4-YL)CARBONYL]-10,11-DIHYDRO-5H-PYRROLO[2,1-C][1,4]BENZODIAZEPINE-3-CARBOXAMIDE]
CRE % inhibition (μM) (human FSH receptor; [1]): 50(30) %
IC50 (human FSH receptor): 4.23 µM
IC50 (hFSH-R; [2]): 2.8 µM
cAMP % efficacy (hFSH-R; [2]): 82%

COc1ccccc1-c1ccc(C(=O)N2Cc3ccc(C(=O)NCCc4ccc(O)cc4)n3Cc3ccccc32)cc1C [Example 66, N-[2-(4-HYDROXYPHENYL)ETHYL]-10-[(2′-METHOXY-2-METHYL-1,1′-BIPHENYL-4-YL)CARBONYL]-10,11-DIHYDRO-5H-PYRROLO[2,1-C][1,4]BENZODIAZEPINE-3-CARBOXAMIDE]
IC50 (human FSH receptor): > 30 µM
melting point: 138 to 147 °C

COC(=O)c1ccc(NC(=O)c2ccc3n2Cc2ccccc2N(C(=O)COc2ccc(Cl)cc2)C3)cc1OC [Example 95, METHYL 4-[({10-[(4-CHLOROPHENOXY)ACETYL]-10,11-DIHYDRO-5H-PYRROLO[2,1-C][1,4]BENZODIAZEPIN-3-YL}CARBONYL)AMINO]-2-METHOXYBENZOATE]
IC50 (human FSH receptor): > 30 µM
melting point: 172 to 174 °C

COc1cc(CNC(=O)c2ccc3n2Cc2ccccc2N(C(=O)CSc2ccc(Br)cc2)C3)ccc1O [Example 82, 10-{[(4-BROMOPHENYL)THIO]ACETYL}-N-(4-HYDROXY-3-METHOXYBENZYL)-10,11-DIHYDRO-5H-PYRROLO[2,1-C][1,4]BENZODIAZEPINE-3-CARBOXAMIDE]
inhibition at 30 µM (human FSH receptor; [1]): 37%
melting point: 168 °C

Cc1ccccc1-c1ccc(C(=O)N2Cc3ccc(C(=O)NC(C)CCc4ccccc4)n3Cc3ccccc32)cc1C (centres unmarked) [Example 32]
IC50 (human FSH receptor): ~30 µM
melting point: 152 to 154 °C

COc1ccc(CNC(=O)c2ccc3n2Cc2ccccc2N(C(=O)c2ccc(-c4ccccc4C)c(OC)c2)C3)cc1 [Example 36, N-(4-METHOXYBENZYL)-10-[(2-METHOXY-2′-METHYL-1,1′-BIPHENYL-4-YL)CARBONYL]-10,11-DIHYDRO-5H-PYRROLO[2,1-C][1,4]BENZODIAZEPINE-3-CARBOXAMIDE]
inhibition at 30 µM (human FSH receptor; [1]): 60%
melting point: 178 to 179 °C

Cc1ccccc1-c1ccc(C(=O)N2Cc3ccc(C(=O)NC(C)c4ccccc4)n3Cc3ccccc32)cc1C (centres unmarked) [Example 13]
IC50 (human FSH receptor): 8.2 µM
melting point: 118 to 124 °C

COc1ccc(CCNC(=O)c2ccc3n2Cc2ccccc2N(C(=O)c2ccc(-c4ccccc4C)c(OC)c2)C3)cc1 [Example 47, 10-[(2-METHOXY-2′-METHYL-1,1′-BIPHENYL-4-YL)CARBONYL]-N-[2-(4-METHOXYPHENYL)ETHYL]-10,11-DIHYDRO-5H-PYRROLO[2,1-C][1,4]BENZODIAZEPINE-3-CARBOXAMIDE]
IC50 (human FSH receptor): > 30 µM
melting point: 193 to 195 °C

COc1cc(C(=O)N2Cc3ccc(C(=O)NCCC(c4ccccc4)c4ccccc4)n3Cc3ccccc32)ccc1-c1ccccc1C [Example 59, N-(3,3-DIPHENYLPROPYL)-10-[(2-METHOXY-2′-METHYL-1,1′-BIPHENYL-4-YL)CARBONYL]-10,11-DIHYDRO-5H-PYRROLO[2,1-C][1,4]BENZODIAZEPINE-3-CARBOXAMIDE]
IC50 (human FSH receptor): > 30 µM
melting point: 214 °C

O=C(Nc1ccc(-c2ccccc2)cc1)c1ccc2n1Cc1ccccc1N(C(=O)COc1ccc(Cl)cc1)C2 [Example 74, N-(1,1′-BIPHENYL-4-YL)-10-[(4-CHLOROPHENOXY)ACETYL]-10,11-DIHYDRO-5H-PYRROLO[2,1-C][1,4]BENZODIAZEPINE-3-CARBOXAMIDE]
inhibition at 30 µM (human FSH receptor; [1]): 6%
melting point: 201 to 202 °C

COc1cc(C(=O)N2Cc3ccc(C(=O)NCC(O)c4ccccc4)n3Cc3ccccc32)ccc1-c1ccccc1C (centres unmarked) [Example 63]
IC50 (human FSH receptor): > 30 µM
melting point: 214 to 215 °C

Cc1ccccc1-c1ccc(C(=O)N2Cc3ccc(C(=O)NCc4ccc(OC(F)(F)F)cc4)n3Cc3ccccc32)cc1C [Example 19]
inhibition at 30 µM (human FSH receptor; [1]): 30%
melting point: 147 to 149 °C

Cc1ccccc1-c1ccc(C(=O)N2Cc3ccc(C(=O)NC4CCc5ccccc54)n3Cc3ccccc32)cc1C (centres unmarked) [Example 92]
IC50 (human FSH receptor): > 30 µM
melting point: 122 to 124 °C

O=C(Nc1ccc2c(c1)C(O)c1ccccc1-2)c1ccc2n1Cc1ccccc1N(C(=O)COc1ccc(Cl)cc1)C2 (centres unmarked) [Example 97, 10-[(4-CHLOROPHENOXY)ACETYL]-N-(9-HYDROXY-9H-FLUOREN-2-YL)-10,11-DIHYDRO-5H-PYRROLO[2,1-C][1,4]BENZODIAZEPINE-3-CARBOXAMIDE]
IC50 (human FSH receptor): > 30 µM
melting point: 176 to 182 °C

COc1cc(CNC(=O)c2ccc3n2Cc2ccccc2N(C(=O)c2ccc(-c4ccccc4C)c(OC)c2)C3)cc(OC)c1 [Example 89, N-(3,5-DIMETHOXYBENZYL)-10-[(2-METHOXY-2′-METHYL-1,1′-BIPHENYL-4-YL)CARBONYL]-10,11-DIHYDRO-5H-PYRROLO[2,1-C][1,4]BENZODIAZEPINE-3-CARBOXAMIDE]
IC50 (human FSH receptor): > 30 µM
melting point: 175 °C

O=C(Nc1cccc(-c2ccccc2)c1)c1ccc2n1Cc1ccccc1N(C(=O)COc1ccc(Cl)cc1)C2 [Example 100, N-(1,1′-BIPHENYL-3-YL)-10-[(4-CHLOROPHENOXY)ACETYL]-10,11-DIHYDRO-5H-PYRROLO[2,1-C][1,4]BENZODIAZEPINE-3-CARBOXAMIDE]
IC50 (human FSH receptor): > 30 µM
melting point: 185 to 189 °C

Cc1ccccc1-c1ccc(C(=O)N2Cc3ccc(C(=O)NCCc4cccc(Cl)c4)n3Cc3ccccc32)cc1C [Example 26]
inhibition at 30 µM (human FSH receptor; [1]): 62%
melting point: 174 to 176 °C

COc1cc(C(=O)N2Cc3ccc(C(=O)NCc4ccccc4C(F)(F)F)n3Cc3ccccc32)ccc1-c1ccccc1C [Example 39, 10-[(2-METHOXY-2′-METHYL-1,1′-BIPHENYL-4-YL)CARBONYL]-N-[2-(TRIFLUOROMETHYL)BENZYL]-10,11-DIHYDRO-5H-PYRROLO[2,1-C][1,4]BENZODIAZEPINE-3-CARBOXAMIDE]
IC50 (human FSH receptor): > 30 µM
melting point: 165 to 167 °C

COc1ccccc1-c1ccc(C(=O)N2Cc3ccc(C(=O)N[C@@H](CO)c4ccccc4)n3Cc3ccccc32)cc1 [Example 4]
inhibition at 30 µM (human FSH receptor; [1]): 9%
melting point: 195 to 196 °C

O=C(NC1CCCc2ccccc21)c1ccc2n1Cc1ccccc1N(C(=O)CSc1ccc(Br)cc1)C2 (centres unmarked) [Example 87, 10-{[(4-BROMOPHENYL)THIO]ACETYL}-N-(1,2,3,4-TETRAHYDRONAPHTHALEN-1-YL)-10,11-DIHYDRO-5H-PYRROLO[2,1-C][1,4]BENZODIAZEPINE-3-CARBOXAMIDE]
inhibition at 30 µM (human FSH receptor; [1]): 3%
melting point: 163 to 165 °C
